Series [1] concerns Jurkat Leukemia cell line. Briefly: Jurkat cell viability (MTT assay). The format is cell-based. The note with it: Homo sapiens; Jurkat cell line, 72 h, MTT. On the procedure:
Jurkat cell culturing and cell viability studies. Jurkat cells are nonadherent cells, and they were cultured in an RPMI-1640 media (supplemented with 10% FBS (v/v) and 1% antibiotic solution (v/v) of penicillin/streptomycin) in non-tissue-culture treated 25 mL flasks according to the known protocol provided by the supplier ATCC. The cell passaging was done at 70% confluency by taking 3 mL of cells and diluting to 25 mL of fresh media. The cells were incubated at 37° C. in 5% CO2 atmosphere.
Jurkat cytotoxicity of DefNEtTrp (6), Def (5), NEtTrp (4), Trp, and 1:1 combinations of 5 with 4 and 5 with Trp was determined by the colorimetric 3-(4,5-dimethylthiazol-2-yl)-2,5-diphenyltetrazolium bromide (MTT) assay. Incubation conditions were the same in all the steps. Cells in 80-95% confluence (grown in standard circular tissue culture dishes, BD Falcon) were separately seeded into 96-well plates using phenol red free RPMI-1640 media (containing 10% FBS and 1% streptomycin/penicillin) in a volume of 50 μL at a concentration of 5.0×10^5 cells/mL. Following this procedure, the Jurkat cells were treated immediately. Stock solution of the compounds were first prepared in DMF at 5 mM and stored at 4° C. for up to 30 days. The stock solution was diluted to specific concentrations using 1×PBS (0.2-20 μM) while DMF was maintained at 1% (v/v). 50 μL of diluted solutions were added in all cell containing wells with at least six replicates per concentration (n=6). The final percentage (v/v) of DMF was 0.5%. The cells were also co-treated with 5 with 4 and 5 with Trp in a 1:1 mole equivalent ratio over the same concentration range but as a combined concentration of both compounds. Control wells in the plates consisted of one lane of cells treated with media alone including 0.5% DMF (v/v) as the measure of 100% viable cell growth in the media. Another control lane consisted of no cells with media including 0.5% DMF (v/v) as a measure of the background with no viable cells. The plates were incubated for 72 h. At 4 h before completion of the incubation time, 25 μL of MTT solution (sterile filtered 5 mg/mL solution, dissolved in 1×PBS buffer) was added to each well. During addition of the MTT solution, the plates were protected from light. After completion a 50 μL portion of 4% (w/v) SDS solution (sterile filtered, dissolved in Tris buffer 1M, pH=10) was added to each well and incubated to solubilize formazan crystals after MTT cell labeling. The absorbance of each well was measured at 570 nm (absorbance of the formazan product at pH >10.0) and 800 nm (as a background correction) using a Tecan plate reader. The absorbance of all wells was compared to the absorbance of the untreated cells with the MTT set as the 100% viable cell standard and the absorbance of the no cell control set as the 0% viable cell standard. Nonlinear regression in GraphPad Prism 8 was utilized to fit the growth curve over the various drug concentrations to determine the half-maximal inhibitory concentration (IC50). All cell viability experiments, including non-Jurkat cells, were repeated at least once for biological duplicates. To confirm cell death at the higher concentration dosages of the compounds and combinations, dead cells were blue stained with trypan blue and visually inspected under the microscope.
Background: Tetrazolium dyes change colour on reduction, which living cells bring about.

A further series deals with red blood cells. Briefly: CO-ADD hemolysis assay. The format is cell-based, human. The conditions noted are these: for hemolysis behavior relative to DefNEtTrp (minor hemolysis): human red blood cells. On the procedure: CO-ADD hemolysis assay. Dry compounds ranging from 1-2 mg were delivered to the CO-ADD. The compounds were solubilized to a stock concentration of 10 mg/mL in DMSO. Samples were serially diluted 1:2 fold in water to final testing concentrations of […] while keeping the final DMSO concentration to a maximum of 0.32% (v/v). Each sample concentration was prepared in polypropylene 384-well plates (Corning 3657) for hemolysis assays, all in two duplicate plates (n=2). All sample preparation was conducted using liquid handling robots. Human whole blood (Australian Red Cross) was washed three times with three volumes of 0.9% NaCl (w/v) and resuspended in a concentration of […], determined by manual cell count in a Neubauer hemocytometer. Washed cells were added to the compound-containing plates for a final volume of 50 μL. After a 10 min shake on a plate shaker the plates were then incubated for 1 h at 37° C. After incubation, the plates were centrifuged at 1000 g for 10 min to pellet cells and debris, 25 μL of the supernatant was then transferred to reading plates (384 well, polystyrene plated (PS), Corning CLS3680), with hemolysis determined by measuring the supernatant absorbance at […] (OD405) using a Tecan M1000 Pro monochromator plate reader. HC10 and HC50 (concentration at 10% and 50% hemolysis, respectively) were calculated by curve fitting the inhibition values vs. log(concentration) using a sigmoidal dose-response function with variable fitting values for the top, bottom, and slope. The maximal percentage of hemolysis is reported as Dmax. Hemolysis samples are classified by HC10≤32 μg/mL. […] Melittin was used in 8 concentrations in 2-fold serial dilutions with 50 µg/mL being the highest concentration.

The subject of a further series is Jurkat cells. Briefly: Apoptosis mechanistic cell viability study (Q-VD-OPh). The format is cell-based, human. The note with it: 10 μM Q-VD-OPh pretreatment, 2 μM cisplatin, 72 h. As to the method:
Apoptosis mechanistic cell viability study. Jurkat cells were seeded into 96-well plates, as indicated in the MTT assay described above. The cells were treated with 10 μM of the apoptosis inhibitor Q-VD-OPh (Q-V-O). Another group of cells were treated with media alone. After 1 h incubation, half of the cells supplemented with Q-V-O were treated with 2 μM DefNEtTrp or 2 μM cisplatin, as positive control, while the other half was treated with media alone. The final percentage of DMF was maintained at 0.5% (v/v). The MTT assay was performed with these samples (n=6). A student t-test was performed to evaluate the difference in the viability of cells treated with DefNEtTrp or cisplatin and supplemented with and without Q-V-O.

Where a name gives a salt, the structure may show the parent alone.

The IC50 is the point on the concentration scale where inhibition reaches its midpoint. Regarding `O=C(O)c1ccc(-n2nc(-c3ccccc3O)nc2-c2ccccc2O)cc1` [Def, deferasirox, reference compound], the IC50 in series [1] is 2600 ± 150 nM. Besides, the “hemolysis behavior relative to DefNEtTrp (minor hemolysis)” value with red blood cells was “comparable”.
As for `CC[C@H](C)[C@H](NC(=O)CN)C(=O)NCC(=O)N[C@@H](C)C(=O)N[C@H](C(=O)N[C@@H](CC(C)C)C(=O)N[C@@H](CCCCN)C(=O)N[C@H](C(=O)N[C@@H](CC(C)C)C(=O)N[C@H](C(=O)N[C@H](C(=O)NCC(=O)N[C@@H](CC(C)C)C(=O)N1CCC[C@H]1C(=O)N[C@@H](C)C(=O)N[C@@H](CC(C)C)C(=O)N[C@H](C(=O)N[C@@H](CO)C(=O)N[C@@H](Cc1c[nH]c2ccccc12)C(=O)N[C@H](C(=O)N[C@@H](CCCCN)C(=O)N[C@@H](CCCNC(=N)N)C(=O)N[C@@H](CCCCN)C(=O)N[C@@H](CCCNC(=N)N)C(=O)N[C@@H](CCC(N)=O)C(=O)N[C@@H](CCC(N)=O)C(N)=O)[C@@H](C)CC)[C@@H](C)CC)[C@@H](C)O)[C@@H](C)O)C(C)C)C(C)C` [Melittin], the “HC10 and HC50 values” with red blood cells (positive hemolytic control) is “within the expected range”.
In the case of `NCCNC(=S)N/N=C/c1ncccc1N` [NEtTrp, nitrogen ethyl triapine dihydrochloride], the IC50 in series [1] was determined as 5900 ± 290 nM. In addition, the “hemolysis behavior relative to DefNEtTrp (minor hemolysis)” value in the series on red blood cells is “comparable”.
On the same counts, the results for `NC(=S)NN=Cc1ncccc1N` [Trp, 3-aminopyridine-2-carboxaldehyde-thiosemicarbazone, reference compound] are 1100 ± 40 nM and “comparable”.
Take `N.N.[Cl][Pt][Cl]` [cisplatin, reference compound]: the “antiproliferative activity when cells are pretreated with Q-VD-OPh” value in the series on Jurkat cells was “less antiproliferative activity”.

The record behind these values is patent US20260055081A1, “Metal Chelator Compounds, Coordination Complexes, and Methods of Preparation and Use Thereof” (University of Puerto Rico, priority 2022, published 2026).
